Results on twelve molecules are retold here after EP4656642A1, “ESTROGEN RECEPTOR PROTEOLYSIS TARGETING CHIMERA COMPOUND AND USE THEREOF” (GAN & LEE PHARM CO., LTD, priority 2023, dated 2024).

Holding throughout (format): cell-based
The test system of experiment [1] is MCF-7 cells. The experiment can be described thus: Inhibition of cell proliferation of MCF-7 cells (CCK-8, 9 days). A digest of the protocol:
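Read-out was CCK-8 viability after 9-day continuous exposure (37°C, 5% CO2) of MCF-7 cells plated at 800/well in 10% FBS DMEM across several compound concentrations. Values are proliferation IC50s.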

The subject of experiment [2] is MCF-7 cells. The experiment can be described thus: Inhibition of cell proliferation of MCF-7 cells (CCK-8, 6 days). To be noted: 6 days of treatment, Table 4. From the text: Test Example 3 Inhibitory effect of the PROTAC compounds provided in the present disclosure on cell proliferation of MCF-7 cells
The complete medium required for MCF-7 cells (source ATCC) was DMEM (gibco, Product number :11995-065) basal medium containing 10% fetal bovine serum. MCF-7 cells were inoculated in 96-well plates at a density of 800 cells/well, and different concentrations of the PROTAC compounds 1-55 provided in the examples of the present disclosure and a positive control sample ARV-471 (source: Innochem) were prepared to treat the cells, and the cells were treated at 37°C in a cell culture incubator with 5% CO2 for 6 days. Cell viability was detected using a CCK-8 kit (Beyotime, Product number: C0040) according to the manufacturer's instructions. The IC50 values of each PROTAC compound after 6 days of treatment were calculated using GraphPadPrism software based on the inhibition rate, and the results are shown in Table 4. Table 4 IC50 values for inhibition of the proliferation of MCF-7 cells by the PROTAC compounds of the present disclosure and positive control sample

For the next experiment, the system named is T-47D cells. The experiment can be described thus: Inhibition of cell proliferation in T-47D cells (CCK-8, 6 days). To be noted: 6 days of treatment. In outline:
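Viability read-out was CCK-8 after 6 days of compound treatment (37 °C, 5% CO2) across graded concentrations. Cells were T-47D seeded at 3,000 per well in 1640 medium plus 10% FBS. IC50 was calculated against proliferation.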

For experiment [3], the target named is T1, ERα (Homo sapiens, UniProt P03372).
T1 sequence (P03372 1-595): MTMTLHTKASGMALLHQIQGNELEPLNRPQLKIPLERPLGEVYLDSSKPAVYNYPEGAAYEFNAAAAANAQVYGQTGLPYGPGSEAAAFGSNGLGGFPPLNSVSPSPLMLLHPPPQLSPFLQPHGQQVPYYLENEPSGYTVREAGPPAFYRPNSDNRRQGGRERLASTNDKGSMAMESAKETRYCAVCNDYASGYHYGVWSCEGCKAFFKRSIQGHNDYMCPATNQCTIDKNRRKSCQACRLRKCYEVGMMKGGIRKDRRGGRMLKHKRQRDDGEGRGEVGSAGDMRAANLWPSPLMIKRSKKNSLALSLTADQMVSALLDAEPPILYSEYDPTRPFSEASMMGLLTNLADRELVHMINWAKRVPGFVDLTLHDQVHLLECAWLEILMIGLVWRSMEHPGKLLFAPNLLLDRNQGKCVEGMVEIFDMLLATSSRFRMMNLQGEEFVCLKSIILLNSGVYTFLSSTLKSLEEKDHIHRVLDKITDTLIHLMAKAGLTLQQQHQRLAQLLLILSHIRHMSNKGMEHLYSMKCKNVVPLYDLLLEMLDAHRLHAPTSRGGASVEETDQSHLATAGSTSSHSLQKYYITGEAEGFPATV
The experiment can be described thus: Degradation of ERα in MCF-7 cells (immunoblotting, 4 h). In outline: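 Degradation rate reflects ERα band intensity, corrected to an internal reference protein, relative to control. Values come from Western blotting of lysates from MCF-7 cells exposed 4 h at 37°C to compounds at final concentrations of 0.15-1000nM.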

Experiment [4] concerns the target T1, ERα. The experiment can be described thus: Degradation of ERα in T-47D cells (immunoblotting, 4 h). Also on record: host or cells: T-47D. In outline: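 ERα protein levels were assessed by immunoblot of RIPA lysates (with protease inhibitor) after 4 h exposure at 37°C. Compound was added in DMSO to T-47D cells at final concentrations of 0.15-1000 nM.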
(In western blotting, separated proteins are transferred to a membrane and probed.)

The mark [5] stands for this setting: treated for 9 days, CCK-8 kit (Table 6).

The structures appear in SMILES notation.

By IC50 is commonly meant the concentration at which inhibition is half-maximal. A low value points to greater potency in that assay. Consider `O=C1CC[C@H](N2Cc3cc(N4CCN(CC5CCN(c6ccc([C@@H]7c8ccc(O)cc8CC[C@@H]7c7ccccc7)cc6)CC5)CC4)ccc3C2=O)C(=O)N1` [ARV-471, reference compound], for which the IC50 with MCF-7 cells [1] (Homo sapiens, MCF7, 216 h, 9 days of treatment, CCK-8, Table 5) was 0.07 µM; with MCF-7 cells [2] (Homo sapiens, MCF7, 144 h), 17.9 µM; in the experiment on T-47D cells (Homo sapiens, T47D, 144 h, Table 2), 0.0017 µM. The “Degradation rate (%) of ERα in MCF-7 cells” value amounted to 38% at ERα [3] (1nM compound) and 76% at ERα [3] (10nM compound). Also, the “Degradation rate (%) of ERα in T-47D cells” value on ERα [4] (1nM compound) came to 61%; on ERα [4] (10nM compound), 85%.
`O=C1CCC(N2Cc3cc4c(cc3C2=O)OC2(CC4)CCN(C3CCC4(CC3)CCN(c3ccc(C5c6ccc(O)cc6CCC5c5ccccc5)cc3)CC4)CC2)C(=O)N1` (stereo not shown) [A22]: the values for the concentration for half-maximal inhibition (IC50) in the experiment with MCF-7 cells [2] and with T-47D cells (Table 2) were 0.94 µM and 0.057 µM, respectively. The “Degradation rate (%) of ERα in MCF-7 cells” value at ERα [3] (10nM compound) was found to be 13%. The “Degradation rate (%) of ERα in T-47D cells” value at ERα [4] (10nM compound) is recorded as 19%.
`O=C1CCC(N2C(=O)c3cc4c(cc3C2=O)OC2(CC4)CCN(C3CC4(CCN(c5ccc(C6c7ccc(O)cc7CCC6c6ccccc6)cc5)CC4)C3)CC2)C(=O)N1` (stereo not shown) [A10]: the IC50 in the experiment on MCF-7 cells [2] was determined as 37.2 µM; in the experiment on T-47D cells (Table 2), 0.035 µM. Besides, at ERα [3] (10nM compound), the “Degradation rate (%) of ERα in MCF-7 cells” value is reported as -3%. Moreover, at ERα [4] (10nM compound), the “Degradation rate (%) of ERα in T-47D cells” value is recorded as -37%.
In the same order, the values of `O=C1CCC(N2C(=O)c3cc4c(cc3C2=O)OCC2(CCN(C3CC5(CCN(c6ccc(C7c8ccc(O)cc8CCC7c7ccccc7)cc6)CC5)C3)CC2)C4)C(=O)N1` (stereo not shown) [A13] are 24.5 µM, 0.031 µM, -9% and 12%.
The corresponding values for `O=C1CCC(N2Cc3cc4c(cc3C2=O)CCC2(CCN(CC3CCN(c5ccc(C6c7ccc(O)cc7CCC6c6ccccc6)cc5)C3)CC2)O4)C(=O)N1` (stereo not shown) [B4] are 10 µM, 0.0569 µM, -34% and -9%.
On to `O=C1CCC(N2C(=O)c3cc4c(cc3C2=O)OCC2(CCN(C3CCC5(CC3)CN(c3ccc(C6c7ccc(O)cc7CCC6c6ccccc6)cc3)C5)CC2)C4)C(=O)N1` (stereo not shown) [A14], for which the IC50 with MCF-7 cells [2] amounted to 4.82 µM; in the experiment on T-47D cells (Table 2), 0.044 µM. Moreover, the “Degradation rate (%) of ERα in MCF-7 cells” value on ERα [3] (10nM compound) was 5%. Besides, the “Degradation rate (%) of ERα in T-47D cells” value on ERα [4] (10nM compound) is listed as 4%.
In the same order, the values of `O=C1CCC(N2C(=O)c3cc4c(cc3C2=O)C2(CCN(C3CCC5(CC3)CN(c3ccc(C6c7ccc(O)cc7CCC6c6ccccc6)cc3)C5)CC2)CO4)C(=O)N1` (stereo not shown) [A20] are 11.6 µM, 0.025 µM, 18% and 36%.
In the same order, the values of `O=C1CCC(N2Cc3cc4c(cc3C2=O)OC2(CC4)CCN(CC3CCN(c4ccc(C5c6ccc(O)cc6CCC5c5ccccc5)cc4)C3)CC2)C(=O)N1` (stereo not shown) [B2] are 10.2 µM, 0.229 µM, -26% and -92%.
Regarding `O=C1CCC(N2C(=O)c3cc4c(cc3C2=O)C2(CCN(CC3CCN(c5ccc(C6c7ccc(O)cc7CCC6c6ccccc6)cc5)CC3)CC2)CO4)C(=O)N1` (stereo not shown) [A8], the half-inhibitory concentration (IC50) in the experiment on MCF-7 cells [1] (setting [5]) stood at 0.019 µM; with MCF-7 cells [2] it was 19 µM; with T-47D cells (Table 2), 0.104 µM; in the experiment with T-47D cells (Table 3), 0.104 µM. The “Degradation rate (%) of ERα in MCF-7 cells” value on ERα [3] (10nM compound) is recorded as -42%. Besides, the “Degradation rate (%) of ERα in T-47D cells” value at ERα [4] (10nM compound) is given as -22%.
As to `O=C1CCC(N2C(=O)c3cc4c(cc3C2=O)OC2(CC4)CCN(C3CCC4(CC3)CCN(c3ccc(C5c6ccc(O)cc6CCC5c5ccccc5)cc3)CC4)CC2)C(=O)N1` (stereo not shown) [A12], the 50% inhibitory concentration (IC50) with MCF-7 cells [1] (setting [5]) stood at 0.0046 µM; in the experiment with MCF-7 cells [2] it was 4.6 µM; in the experiment with T-47D cells (Table 2), 0.127 µM; with T-47D cells (Table 3), 0.127 µM. Moreover, the “Degradation rate (%) of ERα in MCF-7 cells” value on ERα [3] (10nM compound) is 4%. The “Degradation rate (%) of ERα in T-47D cells” value on ERα [4] (10nM compound) is -1%.
Regarding `O=C1CCC(N2C(=O)c3cc4c(cc3C2=O)OC2(CC4)CCN(c3ccc(C4c5ccc(O)cc5CCC4c4ccccc4)cc3)CC2)C(=O)N1` (stereo not shown) [A7], the IC50 in the experiment on MCF-7 cells [2] was determined as 99.9 µM; in the experiment with T-47D cells (Table 2), 0.167 µM. Besides, at ERα [3] (10nM compound), the “Degradation rate (%) of ERα in MCF-7 cells” value is recorded as -29%. In addition, the “Degradation rate (%) of ERα in T-47D cells” value at ERα [4] (10nM compound) is -14%.
In the same order, the values of `O=C1CCC(N2Cc3cc4c(cc3C2=O)CCC2(CCN(C3C[C@@H]5CN(c6ccc(C7c8ccc(O)cc8CCC7c7ccccc7)cc6)C[C@@H]5C3)CC2)O4)C(=O)N1` (stereo partly shown) [A29] are 5.48 µM, 0.215 µM, 8% and -2%.
